In patent US20240316014A1, “METHOD FOR TREATING DEMYELINATING CONDITIONS” (ACADEMIA SINICA, priority 2023, published 2024):
Read-outs that look alike come from different tables or passages of the source.

How the values were obtained:
[1] = system: human primary fibroblasts (CRL2097); experiment: Morphology screening for conversion of fibroblasts into oligodendrocyte-like cells; type: cell-based; details: for morphological changes in fibroblasts (dendritic and dome-shaped): human fibroblasts CRL2097, phase-contrast, vs solvent control (FIG. 1A)
Description: The human normal foreskin skin fibroblast primary cells (CRL-2097) were obtained from the ATCC. CRL-2097 cells were cultured at 37° C. with 5% CO2 in high glucose Dulbecco's Modified Eagle's Medium (HG-DMEM) (Life Technologies) supplemented with 10% fetal bovine serum (FBS) (Hyclone). Cell viability was determined by trypan blue staining. All of the cultures were free of mycoplasma. This study was approved by the Academia Sinica ethics committee (IRB number: AS-IRB-BM-17008, AS-IRB-BM-20038). Cells (1×10^4 per well) were plated on 24-well plates. Cells were cultured in HG-DMEM (Life Technologies) supplemented with 10% fetal bovine serum (FBS) (Hyclone) for 2 days. Then the medium was replaced with DMEM/F12 (Gibco) with 1% N2 supplement, 1% B27 supplement (all from Life Technologies), 20 ng/ml Platelet-Derived Growth Factor AA (PDGF-AA), 20 ng/ml Epidermal Growth Factor (EGF), 20 ng/mL Basic Fibroblast Growth Factor (bFGF), 20 ng/ml Neurotrophin-3 (NT3) (all from Peprotech). Then the cells were treated with 3 mM valproic acid (Tocris) for 2 days, 10 μM Y27632 (LC Laboratories), 10 μM SU9516 (R&D Systems), and 10 μM Forskolin (FSK) (Tocris) for 1 day. The reagent is listed in supplementary Table S1 and Table S2. To find out which chemicals could convert fibroblasts into oligodendrocyte-like cells, we screened chemically-treated cells based on morphological changes that included the formation of a dendritic morphology of neural lineage cells and the dome-shaped morphology of the cell bodies of oligodendrocytes. In a preliminary screen, two chemicals, Y27632 and SU9516, were identified that may be involved in triggering the generation of oligodendrocyte-like cells from human primary fibroblasts (CRL2097). […] To characterize the induced oligodendrocyte-like cells, we performed immunofluorescence staining to analyze the expression of oligodendrocyte-specific markers. […] Next, to optimize the two-chemical cocktail, we performed an additional high-throughput screen using a chemical library of over 1,500 molecules purchased from Selleckchem®. […]

[2] = system: human primary fibroblasts (CRL2097); experiment: Immunofluorescence staining of oligodendrocyte-specific markers in chemically treated fibroblasts; type: cell-based; details: compared to the solvent control group (FIG. 1B)
Description: Cells (1×10^4 per well) were plated on 24-well plates. Cells were cultured in HG-DMEM (Life Technologies) supplemented with 10% fetal bovine serum (FBS) (Hyclone) for 2 days. Then the medium was replaced with DMEM/F12 (Gibco) with 1% N2 supplement, 1% B27 supplement (all from Life Technologies), 20 ng/ml Platelet-Derived Growth Factor AA (PDGF-AA), 20 ng/ml Epidermal Growth Factor (EGF), 20 ng/mL Basic Fibroblast Growth Factor (bFGF), 20 ng/ml Neurotrophin-3 (NT3) (all from Peprotech). Then the cells were treated with 3 mM valproic acid (Tocris) for 2 days, 10 μM Y27632 (LC Laboratories), 10 μM SU9516 (R&D Systems), and 10 μM Forskolin (FSK) (Tocris) for 1 day. The reagent is listed in supplementary Table S1 and Table S2. Cells were fixed with 4% formaldehyde for 15 minutes at room temperature, and washed once with 1×Phosphate Buffered Saline (PBS). Cells were permeabilized with 0.3% Triton X-100 for 5 minutes, washed twice with 1×PBS, and blocked in 2% Bovine Serum Albumin (BSA) in PBS for 30 minutes. […] Fluorescence was analyzed using a fluorescence microscope (Axiovert 200 M, Zeiss).

[3] = system: cuprizone-induced demyelination; details: cited from earlier work

SMILES | morphological changes in fibroblasts (dendritic and dome-shaped) [1] | expression of oligodendrocyte-specific marker 4 (O4) by immunofluorescence [2] | other results
C[C@@H](N)[C@H]1CC[C@H](C(=O)Nc2ccncc2)CC1 [Y27632, Trans-4-[(1R)-1-Aminoethyl]-N-(4-pyridinyl)cyclohexanecarboxamide] | induced morphological changes | higher 04 expression | 
CC(C)(C)[C@]1(O)CC2OC(=O)CC23C(=O)OC2OC(=O)[C@H](O)C231 (some centres unmarked) [Bilobalide] |  |  | remyelination ([3]; cuprizone-induced 6-week model, ref [36]): promote remyelination
COc1ccc2c(c1)c(CC(=O)O)c(C)n2C(=O)c1ccc(Cl)cc1 [Indomethacin] |  |  | remyelination ([3]; 10-week cuprizone-induced demyelination model, ref [33]): promote remyelination
COc1ccc2c(c1)/C(=C/c1cnc[nH]1)C(=O)N2 [SU9516, (Z)-3-((1H-imidazol-5-yl)methylene)-5-methoxyindolin-2-one] | induced morphological changes | higher 04 expression | 
CNC(=O)c1cc(Oc2ccc3nc(N[C@@H]4CCCC[C@H]4O)sc3c2)ccn1 [BLZ945] |  |  | remyelination ([3]; 5-week cuprizone-induced model, ref [34]): enhances remyelination
CCCC(CCC)C(=O)O [VPA, valproic acid] |  |  | conversion efficiency, VPA pretreatment vs co-treatment with YSF ([1]; VPA 2 days then YSF 1 day, or VPA co-treated with YSF 1 day (FIG. 1D)): only pretreatment could improve the conversion efficiency
